For data set [1], the system named is Plasmodium berghei ANKA strain. Description: Survival rate of cerebral malaria model mice. In kind it is in vivo, C57BL/6J mice. As to conditions: 15.6 mg/kg AS, nasal drip, four consecutive days; 28 days of observation. An excerpt:
(§1) Experimental study on the antimalarial activity of Artesunazine (Example Ia-1) in vitro and vivo. I. Protection of Artesunazine on mice infected by Plasmodium berghei ANKA strain. (I) Experimental materials: • 1. Animals: C57BL/6J, weighing 16-18 g, 10 in each group, 50 in total. • 2. Plasmodium strain: Plasmodium berghei ANKA strain, donated by Professor Zhao Ya of Air Force Medical University of the People's Liberation Army of China (The Fourth Military Medical University), was preserved in our laboratory by blood transmission or freezing. • 3. Drugs and preparation methods: Artesunazine and a positive control drug artesunate were dissolved in a mixed solvent of polyethylene glycol 400 (PEG400) and water (PEG400:water=4:1), serving as a preparation for immediate use. (II) Experimental methods • 1. Plasmodium resuscitation and passage: A Plasmodium berghei ANKA strain frozen in liquid nitrogen was taken out and placed in a water bath kettle at 37°C. After melting, it was immediately intraperitoneally inoculated into C57BL/6J mice (0.2 mL/mouse). When the infection rate of the breeding mice reached 15-30%, their eyeballs were removed and blood was collected in an anticoagulant tube. After shaking well, the blood was transmitted to offspring C57BL/6J mice with a 1 mL syringe at an injection dose of 0.2 mL/mouse. • 2. Plasmodium inoculation: C57BL/6J mice were weighed and fed adaptively. When the infection rate of offspring C57BL/6J mice reached 15-30%, the total number of red blood cells and the number of pRBCs were counted after their eyeballs were removed and blood was collected. The blood was injected intraperitoneally into model group C57BL/6J mice at an injection dose of 0.2 mL (including 1×10^7 pRBCs) per mouse, which was the 0th day (D0) of inoculation. • 3. Animal grouping: After inoculation, the experimental mice were randomly divided into 5 groups, including a model (M) group, high, medium and low dose Artesunazine groups (i.e., 40 mg/kg, 20 mg/kg, and 10 mg/kg Artesunazine), and an artesunate group (i.e., 15.6 mg/kg AS, clinically equivalent dose). The dosage of the medium dose Artesunazine group (20mg/kg Artesunazine) is equivalent to that of the artesunate group (15.6 mg/kg). There are 10 mice in each group, a total of 50 mice. • 4. Determination of survival rate From the 0th day of inoculation, the death of mice was observed every day for 28 consecutive days. Survival rate = (Number of surviving mice)/(Number of experimental mice) × 100% [formula] • 5. Determination of recurrence rate After inoculation, the mice were randomly divided into groups and administered via nasal drip for 3 h. […] The mouse recurrence rate was calculated by the ratio of the number of mice with recurrence to the total number of mice. […]

Data set [2] relates to Plasmodium berghei ANKA strain. Description: Recurrence rate of cerebral malaria model mice (blood smear). In kind it is in vivo, C57BL/6J mice. The conditions noted are these: AS group (15.6 mg/kg). An excerpt:
Experimental study on the antimalarial activity of Artesunazine (Example Ia-1) in vitro and vivo. I. Protection of Artesunazine on mice infected by Plasmodium berghei ANKA strain. (I) Experimental materials: • 1. Animals: C57BL/6J, weighing 16-18 g, 10 in each group, 50 in total. • 2. Plasmodium strain: Plasmodium berghei ANKA strain, donated by Professor Zhao Ya of Air Force Medical University of the People's Liberation Army of China (The Fourth Military Medical University), was preserved in our laboratory by blood transmission or freezing. • 3. Drugs and preparation methods: Artesunazine and a positive control drug artesunate were dissolved in a mixed solvent of polyethylene glycol 400 (PEG400) and water (PEG400:water=4:1), serving as a preparation for immediate use. (II) Experimental methods • 1. Plasmodium resuscitation and passage: A Plasmodium berghei ANKA strain frozen in liquid nitrogen was taken out and placed in a water bath kettle at 37°C. After melting, it was immediately intraperitoneally inoculated into C57BL/6J mice (0.2 mL/mouse). When the infection rate of the breeding mice reached 15-30%, their eyeballs were removed and blood was collected in an anticoagulant tube. After shaking well, the blood was transmitted to offspring C57BL/6J mice with a 1 mL syringe at an injection dose of 0.2 mL/mouse. • 2. Plasmodium inoculation: C57BL/6J mice were weighed and fed adaptively. When the infection rate of offspring C57BL/6J mice reached 15-30%, the total number of red blood cells and the number of pRBCs were counted after their eyeballs were removed and blood was collected. The blood was injected intraperitoneally into model group C57BL/6J mice at an injection dose of 0.2 mL (including 1×10^7 pRBCs) per mouse, which was the 0th day (D0) of inoculation. • 3. Animal grouping: After inoculation, the experimental mice were randomly divided into 5 groups, including a model (M) group, high, medium and low dose Artesunazine groups (i.e., 40 mg/kg, 20 mg/kg, and 10 mg/kg Artesunazine), and an artesunate group (i.e., 15.6 mg/kg AS, clinically equivalent dose). The dosage of the medium dose Artesunazine group (20mg/kg Artesunazine) is equivalent to that of the artesunate group (15.6 mg/kg). There are 10 mice in each group, a total of 50 mice. • 4. Determination of survival rate From the 0th day of inoculation, the death of mice was observed every day for 28 consecutive days. Survival rate = (Number of surviving mice)/(Number of experimental mice) × 100% [formula] • 5. Determination of recurrence rate After inoculation, the mice were randomly divided into groups and administered via nasal drip for 3 h. After four consecutive days of administration, blood smear test began at D4. A small drop of blood was taken from the tail tip of a mouse and dropped onto a glass slide. The blood drop was pushed to one end at a certain angle with the edge of another glass slide to make a thin blood film with appropriate thickness. After the thin blood film was air-dried, it was fixed with methanol and placed until completely air-dried. After a Giemsa stain solution was diluted at a ratio of 1:9 for staining (completely covering the fixed thin blood film) for 20 min, the thin blood film was rinsed under a faucet, and the water on the surface of the film was quickly absorbed with filter paper. A drop of cedar oil was dropped onto a glass slide for examination under a 100x oil microscope to count the number of parasitized red blood cells contained in 1000 red blood cells. The mouse recurrence rate was calculated by the ratio of the number of mice with recurrence to the total number of mice. Recurrence rate = (Number of mice with recurrence)/(Number of experimental mice) × 100% [formula] • 6. RMCBS score determination A rapid mouse coma behavior scale (RMCBS) was used to evaluate the neurological function of experimental mice. […]

For data set [3], the system named is Plasmodium berghei ANKA strain. Description: Rapid mouse coma behavior scale (RMCBS) score of cerebral malaria model mice. As to conditions: AS group (15.6 mg/kg), at the end point of observation; total of 20 points. In kind it is in vivo, C57BL/6J mice.
From the text: as §1

Data set [4] concerns Plasmodium berghei ANKA strain. Description: Body weight of cerebral malaria model mice. In kind it is in vivo, C57BL/6J mice. As to conditions: AS group (15.6 mg/kg), at the end of the observation; in g (unit assumed).
From the text: as §1

For data set [5], the system named is Plasmodium falciparum 3D7. Description: SYBR Green assay, growth inhibition of Plasmodium falciparum cultured in vitro. In kind it is cell-based. The protocol: Plasmodium falciparum in the ring stage was synchronized. Smearing was carried out and the infection rate was counted. The synchronized parasitized red blood cells, healthy red blood cells and mediums were matched in a reasonable ratio, resulting in an in vitro culture system of plasmodia (ring bodies, 2 to 4 hours-old) with a hematocrit of 2% and an infection rate of 1%. […] A1-A10 was paved with 25 µl of drugs (with 8 complex wells for each drug) and mixed evenly, and then diluted in multiple proportions (Ax-Hx). Except for A12-H12, 50 µL of a plasmodium culture solution was spread in all the other wells; and A12-H12 was spread with 50 µl of healthy red blood cells (in the medium with a hematocrit of 2%). […] 100 µl of a lysis buffer was added to each of the wells and put into a drawer to avoid light for 1 h.
In this experiment, SYBR Green assay was used to determine the median inhibitory concentration (IC50) value of the drug for treating Plasmodium falciparum 3D7. Nonlinear regression was used to calculate the value by means of software graphpad prism 8.0 (the value was equal to average value plus or minus standard error), and a four-parameter logistic fitting curve was used. Each value in the curve was equal to average value plus or minus standard error in eight biological repetitive experiments.

The conditions of data set [6]: mixed solution with ligustrazine hydrochloride in 80% polyethylene glycol 400, dark environment at 40°C.
Procedure: 160.2 mg of Artesunazine was weighed and put into a penicillin bottle, 8 mL of a 80% polyethylene glycol 400 solution was added, and the Artesunazine was completely dissolved by ultrasonic treatment, resulting in about 20.25 mg/mL Artesunazine solution. Subsequently, the penicillin bottle filled with the solution was sealed, covered with aluminum foil paper for light avoidance treatment, and placed in a stability test box at 40°C; and 0.5 mL to 25 mL of the solution was sampled into volumetric flasks on days 0, 3, 7, and 10, respectively. After diluting with methanol and shaking well, the content of the Artesunazine was determined by an ultra performance liquid chromatography (UPLC) method.
The UPLC determination conditions for the Artesunazine are as follows: Instrument: ultra performance liquid chromatography Waters ACQUITY UPLC, chromatographic column: ACQUITY UPLC HSS T3 Column (100 Å, 1.8 µm, 2.1 mm×100 mm), detection wavelength: 295 nm, mobile phase: acetonitrile-0.1% phosphoric acid water (35:65), flow rate: 0.3 ml/min, column temperature: 30°C, sample room temperature: 25°C, injection volume: 3 µL. […]
Where [7] appears, read: Plasmodium falciparum standard strain 3D7, cultured for 72 h, read-out: IC50.

We go through 6 compounds from patent publication EP4810498A1, “MEDICATION FOR TREATING SEVERE MALARIA AND SYNTHESIS METHOD THEREFOR” (Institute of Chinese Materia Medica, China Academy of …, priority 2023, dated 2025).

Read-outs that look alike come from different tables or passages of the source.

One may read the IC50 as the midpoint of a concentration-inhibition curve. In turn, `C[C@H]1[C@H](OC(=O)CCC(=O)O)O[C@@H]2O[C@@]3(C)CC[C@H]4[C@H](C)CC[C@@H]1[C@@]24OO3` [artesunate, dihydroartemisinin-12-α-succinate, reference compound] had a survival rate in data set [1] of 40%. Besides, in data set [2] (D4), the “Recurrence rate (%) D4” value stood at 10%. Besides, the “Recurrence rate (%) D7” value in data set [2] (D7) is 90%. In addition, the “Recurrence rate (%) D28” value in data set [2] (D28) was 100%. Besides, the RMCBS score in data set [3] is recorded as 16.22±0.55 points. Further, the body weight in data set [4] is given as 15.41±0.50. In addition, the IC50 in data set [5] (Plasmodium falciparum, 3D7, 72 h) was 0.00882 µM. The content of artesunate result in data set [6] is listed as “rapidly decreased”.
For `Cc1nc(C)c(COC(=O)CC(=O)OC2OC3OC4(C)CCC5C(C)CCC(C2C)C35OO4)nc1C` [Compound Ia-2, (3R, 5aS, 6R, 9R, 10R, 12R, 12aR)-3,6,9-trimethyldecahydro-12h-3, 12-epoxy [1, 2] dioxopyran [4,3-i] isobenzopyran-10-yl ((3,5,6-trimethylpyrazine-2-yl)methyl) malonate], the IC50 in data set [5] (setting [7]) was determined as 0.0125 µM.
On to `Cc1nc(C)c(COC(=O)CCCC(=O)OC2OC3OC4(C)CCC5C(C)CCC(C2C)C35OO4)nc1C` [Compound Ia-4, (3R, 5aS, 6R, 9R, 10R, 12R, 12aR)-3,6,9-trimethyldecahydro-12h-3, 12-epoxy [1, 2] dioxopyran [4,3-i] isobenzopyran-10-yl ((3,5,6-trimethylpyrazine-2-yl)methyl) glutarate], for which the IC50 in data set [5] (setting [7]) stood at 0.0339 µM.
With `OC(c1cc(C(F)(F)F)nc2c(C(F)(F)F)cccc12)C1CCCCN1` (stereo not shown) [mefloquine, reference compound], the IC50 in data set [5] (Plasmodium falciparum, 3D7, standard antimalarial drugs given for comparison, source of the values not stated, read-out: IC50) is approximately 0.00396 µM.
Compound `CCN(CC)CCCC(C)Nc1ccnc2cc(Cl)ccc12` (stereo not shown) [chloroquine, reference compound] returned an IC50 in data set [5] (Plasmodium falciparum, 3D7) of approximately 0.00236 µM.
Turning to `Cc1nc(C)c(COC(=O)CCCCC(=O)OC2OC3OC4(C)CCC5C(C)CCC(C2C)C35OO4)nc1C` [Compound Ia-6, (3R, 5aS, 6R, 9R, 10R, 12R, 12aR)-3,6,9-trimethyldecahydro-12h-3, 12-epoxy [1, 2] dioxopyran [4,3-i] isobenzopyran-10-yl ((3,5,6-trimethylpyrazine-2-yl)methyl) adipate], the IC50 in data set [5] (setting [7]) was found to be 0.0143 µM.
